The subject of one data set is MCF-7 cell line. Briefly: MTT anticancer activity assay against MCF-7. The note with it: for IC50: Homo sapiens, MCF7, 48 h, read-out: IC50 on MCF-7 cell line.
The target in data set [1] is T1, recombinant human VEGFR-2/KDR (Homo sapiens, UniProt P35968).
T1 construct: purchased #7788
Briefly: In vitro VEGFR-2 kinase inhibitory assay (ELISA kit). The data set is classed as biochemical. To be noted: mean of three experiments ± SD. The protocol:
About 10 µL of 10 mM ATP was added to 1.25 mL 6 µM substrate peptide followed by dilution of the mixture with distilled water to 2.50 mL to make 2× ATP/substrate cocktail ([ATP] = 40 µM, [substrate] = 3 µm). The enzyme was immediately transferred from –80 °C to ice and was allowed to thaw on ice. Microcentrifuge was performed briefly at 4 °C and returned immediately to ice. […] About 0.6 mL of DTT/Kinase buffer was transferred to each enzyme tube to make 4× reaction mixture. […] About 25 µL of 2× ATP/substrate cocktail was added to 25 µL/well pre-incubated reaction mixture/compound. Reaction plate was incubated at room temperature for 30 min. Then, 50 µL/well stop buffer (50 mM EDTA, pH 8) was added to stop the reaction. […] About 100 µL/well primary antibody was added and incubated at room temperature for 60 min followed by washing three times with 200 µL/well PBS/T.
Appropriate dilution of HRP labeled secondary antibody in PBS/T was prepared with 1% BSA (1:500 dilution for anti-mouse IgG or 1:1000 for anti-rabbit IgG). About 100 µL/well secondary antibody solution was added and incubated at room temperature for 30 min then washed five times with 200 µL/well PBS/T followed by addition of 100 µL/well 3,3′,5,5′-tetramethylbenzidine (TMB) substrate and incubation at room temperature for 15 min and finally addition of 100 µL/well of stop solution and mix well. The absorbance was read at 450 nm with a microtiter plate reader. The values of % activity versus a series of compound concentrations (0.01 µM–0.1 µM–1 µM–10 µM) was then plotted using non-linear regression analysis of sigmoidal dose-response curve.

In data set [2] the target is T2, EGFR (Homo sapiens, UniProt P00533). As to the kind of experiment: In vitro EGFR kinase inhibitory assay (Kinase-Glo luminescence kit).
T2 sequence (P00533 25-1210): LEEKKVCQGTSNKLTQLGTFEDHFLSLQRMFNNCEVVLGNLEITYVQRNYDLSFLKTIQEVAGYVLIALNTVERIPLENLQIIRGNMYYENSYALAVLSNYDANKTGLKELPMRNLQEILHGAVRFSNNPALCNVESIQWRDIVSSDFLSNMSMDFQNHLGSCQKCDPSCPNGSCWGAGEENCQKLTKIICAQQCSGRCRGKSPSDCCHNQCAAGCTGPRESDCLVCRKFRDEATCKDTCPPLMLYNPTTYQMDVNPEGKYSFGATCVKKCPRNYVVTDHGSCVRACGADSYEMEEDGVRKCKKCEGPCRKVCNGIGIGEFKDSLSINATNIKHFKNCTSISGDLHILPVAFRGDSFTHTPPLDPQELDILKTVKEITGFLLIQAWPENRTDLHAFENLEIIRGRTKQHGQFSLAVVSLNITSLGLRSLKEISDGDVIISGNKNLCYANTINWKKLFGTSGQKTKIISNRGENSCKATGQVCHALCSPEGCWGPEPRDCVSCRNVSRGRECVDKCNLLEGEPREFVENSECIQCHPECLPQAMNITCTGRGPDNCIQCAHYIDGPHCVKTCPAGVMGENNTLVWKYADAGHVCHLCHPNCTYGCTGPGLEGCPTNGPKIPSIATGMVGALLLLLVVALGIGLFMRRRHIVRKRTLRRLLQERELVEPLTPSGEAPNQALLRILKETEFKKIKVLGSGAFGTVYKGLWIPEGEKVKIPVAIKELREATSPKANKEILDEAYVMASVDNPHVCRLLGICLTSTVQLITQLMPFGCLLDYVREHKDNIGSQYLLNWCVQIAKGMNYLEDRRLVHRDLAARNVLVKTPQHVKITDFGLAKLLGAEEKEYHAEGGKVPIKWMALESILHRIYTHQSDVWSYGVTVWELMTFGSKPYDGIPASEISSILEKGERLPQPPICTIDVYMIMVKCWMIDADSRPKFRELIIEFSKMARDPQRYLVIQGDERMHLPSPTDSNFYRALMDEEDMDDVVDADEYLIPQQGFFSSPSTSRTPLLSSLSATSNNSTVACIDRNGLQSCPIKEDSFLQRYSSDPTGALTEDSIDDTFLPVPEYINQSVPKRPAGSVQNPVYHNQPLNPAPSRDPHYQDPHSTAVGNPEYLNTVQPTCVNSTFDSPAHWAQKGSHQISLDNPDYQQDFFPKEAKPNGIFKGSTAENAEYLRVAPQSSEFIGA
Method: All samples and controls were tested in triplicate. 5× Kinase assay buffer, ATP and 50× PTK substrate were thawed. The master mixture was constructed (25 µL per well), consequently 25 µL was added to every well. About 5 µL inhibitor solution was added to each well labeled as “Test Inhibitor” while for the “Positive control” and “Blank”, 5 µL of the buffer solution without inhibitor (Inhibitor buffer) was added.
About 3 mL of 1× kinase assay buffer was developed through mixing 600 µL of 5× kinase assay buffer with 2400 µL water. About 20 µL of 1× kinase assay buffer was added to the wells designated as “Blank”. EGFR enzyme was thawed on ice. Consequent to the first thaw, the tube containing enzyme was shortly spun so as to recover full content of the tube. The amount of EGFR required for the assay was calculated then the enzyme was diluted to 1 ng/µL with 1× kinase assay buffer. Reaction was initiated via addition of 20 µL of diluted EGFR enzyme to the wells designated “Positive Control” and “Test Inhibitor Control” then incubation at 30 °C for 40 min. Kinase-Glo Max reagent was thawed. After the 40 min reaction, 50 µL of Kinase-Glo Max reagent was added to each well. Plates were covered with aluminum foil and incubated at room temperature for 15 min. Finally, luminescence was measured using the microplate Robonik P2000 ELISA Reader (India).
In a further data set the test system is VEGFR-2. To be noted: Figure 1 compounds I–VII; cited from earlier work.
The test system of data set [3] is MCF-10A (the human mammary epithelial cell line). As to the kind of experiment: MTT cytotoxicity on normal mammary epithelial cell line. To be noted: for IC50: Homo sapiens, MCF-10A, read-out: IC50 on normal mammary epithelial cell line (MCF-10A); for Selectivity index: MCF-10A versus MCF-7 tumor cell line.
In data set [4] the test system is MCF-7 cells. Briefly: Cell cycle analysis, propidium iodide flow cytometry. Type of data set: cell-based, human. The note with it: 24 h. As to the method: Cell cycle were carried out using propidium iodide flow cytometry kit (Abcam, ab139418) according to the manufacturer’s instructions. The MCF-7 cells were treated with 0.66 µM of compound 5f for 24 h. Then, the cells were washed twice with ice-cold PBS, centrifuged and fixed using ice-cold 66% (v/v) ethanol, washed with PBS, re-suspended with 0.1 mg/mL RNase and stained with 200 µL propidium iodide (PI). Finally, cells were analyzed by flow cytometry. The cell cycle distributions were calculated using Cell-Quest software (Becton Dickinson). An interference with the normal cell cycle distribution resulted upon exposure of MCF-7 cells to this compound as indicated.

Data set [5] concerns MCF-7 cells. As to the kind of experiment: Annexin V-FITC/PI apoptosis detection. To be noted: MCF-7, 0.66 µM, 24 h. Type of data set: cell-based, human. As to the method:
Apoptosis was evaluated utilizing Annexin V-FITC/PI apoptosis detection kit (Biovision, Mountain View, CA #K101-25) according to the manufacturer’s instructions after staining the cells with Annexin V fluorescein isothiocyanate (FITC) and counterstaining with propidium iodide (PI).
The cells then were centrifuged and in case of adherent cells, cells were gently trypsinized and washed once with serum-containing media followed by resuspension in 500 µL of binding buffer. About 5 µL of Annexin V-FITC and 5 µL of (PI […]) were added and incubated at room temperature for 5 min in the dark. Analyses were carried out using flow cytometer (Ex = 488 nm; Em = 530 nm) using FITC signal detector (usually FL1) and PI staining by the phycoerythrin emission signal detector (usually FL2).

Data set [6] addresses T2, EGFR. To be noted: Figure 1 compounds I–VII; cited from earlier work.

Like-named read-outs stand apart in the source and are kept apart here.

Consider 23 compounds from paper PMC6442109, “Novel thienopyrimidine derivatives as dual EGFR and VEGFR-2 inhibitors: design, synthesis, anticancer activity and effect on cell cycle profile” (Journal of Enzyme Inhibition and Medicinal Chemistry, 2019).

T1 sequence (P35968 20-1356): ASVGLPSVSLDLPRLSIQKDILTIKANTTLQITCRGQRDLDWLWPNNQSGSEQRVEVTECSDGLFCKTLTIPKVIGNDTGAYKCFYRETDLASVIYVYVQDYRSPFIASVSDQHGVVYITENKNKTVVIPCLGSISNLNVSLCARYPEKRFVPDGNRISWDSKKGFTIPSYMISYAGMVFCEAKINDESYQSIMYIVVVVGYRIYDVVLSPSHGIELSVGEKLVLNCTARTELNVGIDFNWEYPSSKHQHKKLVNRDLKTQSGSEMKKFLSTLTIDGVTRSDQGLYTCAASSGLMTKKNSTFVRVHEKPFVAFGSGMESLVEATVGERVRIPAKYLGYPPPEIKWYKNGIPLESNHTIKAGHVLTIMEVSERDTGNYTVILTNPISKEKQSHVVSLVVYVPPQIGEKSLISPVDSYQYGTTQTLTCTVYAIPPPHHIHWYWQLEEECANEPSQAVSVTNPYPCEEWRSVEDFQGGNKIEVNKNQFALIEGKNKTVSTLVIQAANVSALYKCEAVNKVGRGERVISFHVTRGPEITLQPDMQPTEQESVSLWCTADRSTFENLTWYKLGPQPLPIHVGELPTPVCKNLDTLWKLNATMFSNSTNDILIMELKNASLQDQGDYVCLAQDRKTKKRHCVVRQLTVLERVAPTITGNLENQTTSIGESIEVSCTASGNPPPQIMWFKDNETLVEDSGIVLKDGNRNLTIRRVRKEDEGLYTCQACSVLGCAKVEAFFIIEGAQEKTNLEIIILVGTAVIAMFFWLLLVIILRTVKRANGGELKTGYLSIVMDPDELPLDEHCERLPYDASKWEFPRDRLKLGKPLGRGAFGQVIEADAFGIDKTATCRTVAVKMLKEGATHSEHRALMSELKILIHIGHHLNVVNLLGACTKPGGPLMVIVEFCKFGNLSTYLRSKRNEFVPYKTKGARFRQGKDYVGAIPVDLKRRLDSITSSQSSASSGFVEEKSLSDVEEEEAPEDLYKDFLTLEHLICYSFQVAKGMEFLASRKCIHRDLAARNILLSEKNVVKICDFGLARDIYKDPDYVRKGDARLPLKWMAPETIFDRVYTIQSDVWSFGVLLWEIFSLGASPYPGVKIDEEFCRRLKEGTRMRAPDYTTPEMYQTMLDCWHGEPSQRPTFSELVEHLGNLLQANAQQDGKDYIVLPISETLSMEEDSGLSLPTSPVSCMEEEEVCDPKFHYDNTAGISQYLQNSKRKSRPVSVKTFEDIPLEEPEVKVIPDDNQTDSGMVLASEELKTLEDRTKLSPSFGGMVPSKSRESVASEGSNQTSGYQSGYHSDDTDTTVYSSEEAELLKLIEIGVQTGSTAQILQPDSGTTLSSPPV

Turning to `O=S(=O)(Nc1ncccn1)c1ccc(Nc2ncnc3sc4c(c23)CCCCC4)cc1` [Compound 4b, N-(Pyrimidin-2-yl)-4-((6,7,8,9-tetrahydro-5H-cyclohepta[4,5]thieno[2,3-d]pyrimidin-4-yl)amino)benzenesulfonamide], the melting point lay in the range of 243 to 245 °C. Also, the IC50 with MCF-7 cell line stood at 7.12 ± 0.55 µM.
`Clc1ccc(Oc2ncnc3sc4c(c23)CCCCC4)cc1` [Compound 5e, 4-(4-Chlorophenoxy)-6,7,8,9-tetrahydro-5H-cyclohepta[4,5]thieno[2,3-d]pyrimidine]: the melting point was 115 to 116 °C. The IC50 in data set [1] turned out to be 0.34 ± 0.013 µM. The IC50 in the data set on MCF-7 cell line came out at 2.76 ± 0.33 µM. In addition, on EGFR [2], the IC50 worked out at 0.069 ± 0.003 µM.
Take `O=C(Nc1cccc(Br)c1)Nc1ccc(Oc2ncnc3sc4c(c23)CCCC4)cc1Cl` [VII]: in the data set with VEGFR-2, the 50% inhibitory concentration (IC50) was 0.015 µM.
As to `COC(=O)Nc1ccc(Nc2ncnc3cc(OC)c(OC)cc23)cc1` [II], the IC50 in the data set with VEGFR-2 was 5.8 µM.
For `Cc1ccccc1Oc1ncnc2sc3c(c12)CCCCC3` [Compound 5h, 4-(o-Tolyloxy)-6,7,8,9-tetrahydro-5H-cyclohepta[4,5]thieno[2,3-d]pyrimidine], the melting point is > 300 °C. Further, the IC50 in the data set on MCF-7 cell line was found to be 87.4 ± 5.4 µM.
Consider `C#Cc1cccc(Nc2ncnc3cc(OCCOC)c(OCCOC)cc23)c1` [Erlotinib, reference compound], for which the figures for the IC50 (with MCF-7 cell line; in data set [3]) were 1.14 ± 0.05 µM and 69.4 ± 4.24 µM, respectively.
In the case of `Nc1ccc(Oc2ncnc3sc4c(c23)CCCCC4)cc1` [Compound 5b, 4-((6,7,8,9-Tetrahydro-5H-cyclohepta[4,5]thieno[2,3-d]pyrimidin-4-yl)oxy)aniline], the melting point is > 300 °C. Further, the IC50 in data set [1] was 0.51 ± 0.016 µM. Besides, the IC50 in the data set with MCF-7 cell line was 1.47 ± 0.11 µM. In addition, in [3], the IC50 worked out at 72.7 ± 3.98 µM and the Selectivity index is recorded as 49.5. Also, on EGFR [2], it took 0.042 ± 0.002 µM to reach half-maximal inhibition (IC50) and the “folds more potent than lapatinib, EGFR inhibitory activity” value is on record as 1.24 folds.
As for `Cc1ccnc(NS(=O)(=O)c2ccc(Nc3ncnc4sc5c(c34)CCCCC5)cc2)n1` [Compound 4c, N-(4-Methylpyrimidin-2-yl)-4-((6,7,8,9-tetrahydro-5H-cyclohepta[4,5]thieno[2,3-d]pyrimidin-4-yl)amino)benzenesulfonamide], the melting point lay within 260 to 262 °C. In addition, the IC50 in the data set with MCF-7 cell line is 11 ± 1.24 µM.
Take `Fc1ccc(Oc2ncnc3sc4c(c23)CCCCC4)cc1` [Compound 5g, 4-(4-Fluorophenoxy)-6,7,8,9-tetrahydro-5H-cyclohepta[4,5]thieno[2,3-d]pyrimidine]: the melting point is > 300 °C. The IC50 with MCF-7 cell line came out at 1.23 ± 0.04 µM. Also, the IC50 at EGFR [2] came out at 0.2 ± 0.011 µM.
On to `COc1cc2nc(Cl)nc(Nc3ccc(S(N)(=O)=O)cc3)c2cc1OC` [V], for which, in the data set on VEGFR-2, the IC50 is 1.02 µM.
Consider `Brc1ccc(Oc2ncnc3sc4c(c23)CCCCC4)cc1` [Compound 5c, 4-(4-Bromophenoxy)-6,7,8,9-tetrahydro-5H-cyclohepta[4,5]thieno[2,3-d]pyrimidine], for which the melting point is 135 to 136 °C. Moreover, the IC50 in the data set on MCF-7 cell line was 6.65 ± 0.41 µM.
As for `O=[N+]([O-])c1ccc(Oc2ncnc3sc4c(c23)CCCCC4)cc1` [Compound 5k, 4-(4-Nitrophenoxy)-6,7,8,9-tetrahydro-5H-cyclohepta[4,5]thieno[2,3-d]pyrimidine], the melting point was 166 to 169 °C. Also, the IC50 in the data set with MCF-7 cell line turned out to be 2.76 ± 0.19 µM. This compound had an IC50 at EGFR [2] of 0.46 ± 0.018 µM.
Take `Nc1cccc(Oc2ncnc3sc4c(c23)CCCCC4)c1` [Compound 5a, 3-((6,7,8,9-Tetrahydro-5H-cyclohepta[4,5]thieno[2,3-d]pyrimidin-4-yl)oxy)aniline]: the melting point was 179 to 180 °C. In addition, in data set [1], the IC50 came to 1.71 ± 0.062 µM. Also, the IC50 with MCF-7 cell line worked out at 1.98 ± 0.21 µM. On EGFR [2], this compound returned an IC50 of 0.07 ± 0.003 µM.
As to `Cc1ccc(Oc2ncnc3sc4c(c23)CCCCC4)cc1` [Compound 5i, 4-(p-Tolyloxy)-6,7,8,9-tetrahydro-5H-cyclohepta[4,5]thieno[2,3-d]pyrimidine], the melting point is > 300 °C. Moreover, in the data set with MCF-7 cell line, the IC50 is 21.1 ± 2.7 µM.
Take `COc1ccc(Oc2ncnc3sc4c(c23)CCCCC4)cc1` [Compound 5j, 4-(4-Methoxyphenoxy)-6,7,8,9-tetrahydro-5H-cyclohepta[4,5]thieno[2,3-d]pyrimidine]: the melting point is > 300 °C. Moreover, the IC50 in the data set on MCF-7 cell line came to 5.01 ± 0.31 µM.
For `COc1cc2nc(Cl)nc(Nc3ccc(C(N)=O)cc3)c2cc1OC` [VI], the IC50 in the data set with VEGFR-2 is 1.17 µM.
Consider `COc1cc2nc(Cl)nc(Nc3ccc(S(=O)(=O)Nc4nccs4)cc3)c2cc1OC` [IV], for which the IC50 in the data set on VEGFR-2 is 7.79 µM.
With `Cc1cc(Oc2ncnc3sc4c(c23)CCCCC4)ccc1Cl` [Compound 5f, 4-(4-Chloro-3-methylphenoxy)-6,7,8,9-tetrahydro-5H-cyclohepta[4,5]thieno[2,3-d]pyrimidine], the IC50 in data set [1] worked out at 1.23 ± 0.028 µM. Besides, in the data set on MCF-7 cells [4] (MCF-7, 0.66 µM), the “%G0–G1” value stood at 34.19%, the “%G2/M” value is given as 32.65%, the “%Pre-G1” value was 17.58% and the “%S” value was 33.16%. Further, in the data set on MCF-7 cells [4] (MCF-7, IC50 concentration), the “increase in percentage of cells at G2/M phase compared to control” value was determined as 4.75 folds and the “increase in percentage of cells at pre-G1 phase compared to control” value is reported as 11.80 folds. Further, in the data set with MCF-7 cells [5], the “Apoptosis %Total” value came out at 17.58%, the “increase in annexin-V positive cells (early apoptosis) more than control” value was 6.07 folds, the “increase in late apoptotic cells more than control” value is “about 24.66 folds” and the “increase in necrotic cells more than control” value is given as ~12.48 folds. For the same compound, in the data set on MCF-7 cells [5] (lower right quadrant), the “Apoptosis %Early” value came out at 5.34%. Besides, the Necrosis in the data set with MCF-7 cells [5] (upper left quadrant) is 2.87%. Further, the “Apoptosis %Late” value in the data set with MCF-7 cells [5] (upper right quadrant) is given as 9.37%. Also, the IC50 in the data set with MCF-7 cell line was determined as 0.66 ± 0.05 µM. In addition, in the data set on MCF-7 cell line (MCF-7), the “folds more potent than doxorubicin, anticancer activity” value amounted to 4.64 folds and the “folds more potent than erlotinib, anticancer activity” value is given as 1.73 folds. In data set [3], the IC50 is 153 ± 7.57 µM and the Selectivity index was 232.1. For the same compound, at EGFR [2], it took 0.028 ± 0.003 µM to reach half-maximal inhibition (IC50) and the “folds more potent than erlotinib, EGFR inhibitory activity” value worked out at 1.18 folds.
Take `COc1cccc2c1C(=O)c1c(O)c3c(c(O)c1C2=O)C[C@@](O)(C(=O)CO)C[C@@H]3O[C@H]1C[C@H](N)[C@H](O)[C@H](C)O1` [Doxorubicin, reference compound]: the half-inhibitory concentration (IC50) came to 3.06 ± 0.19 µM with MCF-7 cell line and 27.6 ± 1.55 µM in [3].
In turn, `NS(=O)(=O)c1ccc(Nc2ncnc3sc4c(c23)CCCCC4)cc1` [Compound 4a, 4-((6,7,8,9-Tetrahydro-5H-cyclohepta[4,5]thieno[2,3-d]pyrimidin-4-yl)amino)benzenesulfonamide] returned a melting point of 271 to 272 °C. For the same compound, the IC50 with MCF-7 cell line was found to be 39.8 ± 4.11 µM.
With `COc1cc2ncnc(Nc3ccc(Br)cc3F)c2cc1OC` [I], in the data set on VEGFR-2, the IC50 was 1.65 µM.
For `Clc1ccccc1Oc1ncnc2sc3c(c12)CCCCC3` [Compound 5d, 4-(2-Chlorophenoxy)-6,7,8,9-tetrahydro-5H-cyclohepta[4,5]thieno[2,3-d]pyrimidine], the melting point is > 300 °C. Also, the IC50 in [1] was found to be 0.74 ± 0.025 µM. The IC50 in the data set on MCF-7 cell line amounted to 1.34 ± 0.07 µM. In addition, it took 0.07 ± 0.004 µM to reach half-maximal inhibition on EGFR [2] (IC50).
Regarding `CCOC(=O)Nc1ccc(Nc2ncnc3cc(OC)c(OC)cc23)cc1Cl` [III], on EGFR [6], the IC50 is 0.9 µM.
